Source: ChEMBL document CHEMBL1201862, “PubChem BioAssay data set” (2004)
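Compound exposure: 48 hours, 5 concentrations, 96-well plates. GI50 marks 50% less growth.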 Active and inactive are the calls of the source. Rule as the data show it: active = GI50 up to about 1.1 µM and inactive = higher.

Columns and labels:
Assay in all cases: NCI anticancer screen, dose series, 48 h
786-0 = test system: 786-0
CCRF-CEM = test system: CCRF-CEM
DU-145 = test system: DU-145
HCC 2998 = test system: HCC 2998
HL-60 = test system: HL-60
Hs-578T = test system: Hs-578T
KM12 = test system: KM12
LOX IMVI = test system: LOX IMVI
MDA-MB-435 = test system: MDA-MB-435
MDA-N = test system: MDA-N
MOLT-4 = test system: MOLT-4
Malme-3M = test system: Malme-3M
NCI-H522 = test system: NCI-H522
OVCAR-8 = test system: OVCAR-8
SF-268 = test system: SF-268
SF-295 = test system: SF-295
SF-539 = test system: SF-539
SK-MEL-2 = test system: SK-MEL-2
SN12C = test system: SN12C
T47D = test system: T47D

Structure (SMILES) | GI50 (786-0) | GI50 (CCRF-CEM) | GI50 (DU-145) | GI50 (HCC 2998) | GI50 (HL-60) | GI50 (Hs-578T) | GI50 (KM12) | GI50 (LOX IMVI) | GI50 (MDA-MB-435) | GI50 (MDA-N) | GI50 (MOLT-4) | GI50 (Malme-3M) | GI50 (NCI-H522) | GI50 (OVCAR-8) | GI50 (SF-268) | GI50 (SF-295) | GI50 (SF-539) | GI50 (SK-MEL-2) | GI50 (SN12C) | GI50 (T47D)
CC(C)c1ccc2c(c1)CCC1C(C)(CN)CCCC21C (centres undefined) | 1.56 µM (inactive) | 1.55 µM (inactive) | 1.77 µM (inactive) | 0.0438 µM (active) | 1.31 µM (inactive) | 1.63 µM (inactive) | 1.69 µM (inactive) | 1.43 µM (inactive) | 1.44 µM (inactive) | 1.51 µM (inactive) | 1.32 µM (inactive) | 1.43 µM (inactive) | 1.79 µM (inactive) | 1.73 µM (inactive) | 1.65 µM (inactive) | 1.82 µM (inactive) | 1.79 µM (inactive) | 1.73 µM (inactive) | 1.71 µM (inactive) | 1.45 µM (inactive)
COC(=O)c1ccccc1OCc1cc(=O)oc2ccc(C)cc12 | 39.1 µM (inactive) | > 100 µM (inactive) | > 100 µM (inactive) | > 100 µM (inactive) | > 100 µM (inactive) | 27.3 µM (inactive) | > 100 µM (inactive) | > 69.2 µM (inactive) | > 100 µM (inactive) | > 100 µM (inactive) | > 100 µM (inactive) | > 100 µM (inactive) | 14.8 µM (inactive) | 39.3 µM (inactive) | 29.1 µM (inactive) | 28.2 µM (inactive) | 20.2 µM (inactive) | > 42.6 µM (inactive) | > 100 µM (inactive) | 4.7 µM (inactive)
COc1ccccc1Cn1c2c(c3c(C(=O)NCCN(C)C)c(O)ccc31)C(=O)c1ccccc1C2=O | 0.409 µM (active) | 0.298 µM (active) | 1.81 µM (inactive) | 1.66 µM (inactive) | 1.01 µM (active) | 1.9 µM (inactive) | 1.59 µM (inactive) | 1.89 µM (inactive) | 1.69 µM (inactive) | 1.4 µM (inactive) | 1.06 µM (active) | 1.63 µM (inactive) | 1.69 µM (inactive) | 2.14 µM (inactive) | 1.68 µM (inactive) | 1.87 µM (inactive) | 1.9 µM (inactive) | 1.69 µM (inactive) | 1.94 µM (inactive) | 2.16 µM (inactive)
CCC(C)(C)/C(CC(O)(C(F)(F)F)C(F)(F)F)=N\O | > 100 µM (inactive) | > 100 µM (inactive) | > 100 µM (inactive) | > 100 µM (inactive) | > 100 µM (inactive) | > 100 µM (inactive) | > 100 µM (inactive) | > 100 µM (inactive) | > 100 µM (inactive) | > 100 µM (inactive) | > 100 µM (inactive) | > 100 µM (inactive) | > 100 µM (inactive) | – | > 100 µM (inactive) | > 100 µM (inactive) | > 100 µM (inactive) | > 100 µM (inactive) | > 100 µM (inactive) | > 100 µM (inactive)
COc1ccc(CCNCCCC2c3ccccc3-c3ccccc32)cc1OC | 15 µM (inactive) | 24.3 µM (inactive) | 15.5 µM (inactive) | 2.06 µM (inactive) | 12.9 µM (inactive) | 20.1 µM (inactive) | 15.1 µM (inactive) | 14.2 µM (inactive) | 14.7 µM (inactive) | 16.7 µM (inactive) | 22.6 µM (inactive) | 13.6 µM (inactive) | 15.9 µM (inactive) | 16.6 µM (inactive) | 15.1 µM (inactive) | 15.6 µM (inactive) | 16.3 µM (inactive) | 6.68 µM (inactive) | 15 µM (inactive) | 17.1 µM (inactive)
